Key:
Schistosoma mansoni [1] = test: Probability that the compound had no effect on carbachol response; NS = no significant; type: functional, organism-based
Schistosoma mansoni [2] = test: Percentage reduction in carbachol response on Schistosoma mansoni; type: functional
Schistosoma mansoni [3] = test: Effect on the carbachol-induced paralytic response on Schistosoma mansoni at 10E-4 (phosphonium treated); type: functional; design: unit not given here
Schistosoma mansoni [4] = test: Probability that there was effect on carbachol response; type: functional

| Structure (SMILES) | Probability (Schistosoma mansoni [1]) | Reduction (Schistosoma mansoni [2]) | Activity (Schistosoma mansoni [3]) | Probability (Schistosoma mansoni [4]) |
| --- | --- | --- | --- | --- |
| Br.Br.NCC[PH](c1ccccc1)(c1ccccc1)c1ccccc1 | No significance | 14.6% | -67.8 |  |
| [Br-].[Br-].c1ccc([P+](CCC[P+](c2ccccc2)(c2ccccc2)c2ccccc2)(c2ccccc2)c2ccccc2)cc1 |  | 102.6% | 2 | <0.001 |
| [Br-].[Br-].c1ccc([P+](CC[P+](c2ccccc2)(c2ccccc2)c2ccccc2)(c2ccccc2)c2ccccc2)cc1 |  | 117.8% | 13.3 | <0.001 |
| CC[P+](c1ccccc1)(c1ccccc1)c1ccccc1.[Br-] [ETHYLTRIPHENYLPHOSPHONIUM BROMIDE] |  | 27% | -63.8 | <0.02 |
| Br.Br.CCCCNCCC[PH](c1ccccc1)(c1ccccc1)c1ccccc1 |  | 22.8% | -70.3 | <0.001 |
| Br.Br.CCCCCNCCC[PH](c1ccccc1)(c1ccccc1)c1ccccc1 |  | 58.2% | -31.8 | <0.001 |
| N#CCCC[P+](c1ccccc1)(c1ccccc1)c1ccccc1.[Br-] | No significance | 10.3% | -73 |  |
| Br.Br.NCCCCC[PH](c1ccccc1)(c1ccccc1)c1ccccc1 |  | 13.1% | -81.3 | <0.05 |
| Br.Br.CCCCCCNCCC[PH](c1ccccc1)(c1ccccc1)c1ccccc1 |  | 62.4% | -35.4 | <0.0001 |
| Br.Br.CCCNCCC[PH](c1ccccc1)(c1ccccc1)c1ccccc1 | No significance | 0.97% | -71.7 |  |
| [Br-].c1ccc(C[P+](c2ccccc2)(c2ccccc2)c2ccccc2)cc1 |  | 27.1% | -55.1 | <0.05 |
| BrCCC[P+](c1ccccc1)(c1ccccc1)c1ccccc1.[Br-] |  | 45.3% | -35 | <0.01 |
| [Br-].[Br-].c1ccc([P+](CCCCC[P+](c2ccccc2)(c2ccccc2)c2ccccc2)(c2ccccc2)c2ccccc2)cc1 |  | 76.1% | -19.7 | <0.001 |
| [Br-].[Br-].c1ccc([P+](CCCCCC[P+](c2ccccc2)(c2ccccc2)c2ccccc2)(c2ccccc2)c2ccccc2)cc1 |  | 94.3% | -4.6 | <0.001 |
| Br.Br.CCNCCC[PH](c1ccccc1)(c1ccccc1)c1ccccc1 |  | 18.6% | -72 | <0.05 |

From ChEMBL document CHEMBL1121488, “Effects of phosphonium compounds on Schistosoma mansoni” (1980)
